Reference: patent EP1712550A2, “Substituted triazole diamine derivatives as kinase inhibitors” (priority 2000, dated 2002)
Read-outs that look alike come from different tables or passages of the source.

Experiments:
Assay type in all cases: biochemical
[1] = molecular target: T1, EGFR (epidermal growth factor receptor) (Homo sapiens, UniProt P00533); test: Kinase Selectivity Assay EGF-R
T1 construct: is purified from human A431 cell membranes (Sigma, St. Louis, MO, Cat.# E3641); purchased Sigma, St. Louis, MO E3641; host or cells: human A431 cell membranes (endogenous protein)
T1 sequence (P00533 25-1210): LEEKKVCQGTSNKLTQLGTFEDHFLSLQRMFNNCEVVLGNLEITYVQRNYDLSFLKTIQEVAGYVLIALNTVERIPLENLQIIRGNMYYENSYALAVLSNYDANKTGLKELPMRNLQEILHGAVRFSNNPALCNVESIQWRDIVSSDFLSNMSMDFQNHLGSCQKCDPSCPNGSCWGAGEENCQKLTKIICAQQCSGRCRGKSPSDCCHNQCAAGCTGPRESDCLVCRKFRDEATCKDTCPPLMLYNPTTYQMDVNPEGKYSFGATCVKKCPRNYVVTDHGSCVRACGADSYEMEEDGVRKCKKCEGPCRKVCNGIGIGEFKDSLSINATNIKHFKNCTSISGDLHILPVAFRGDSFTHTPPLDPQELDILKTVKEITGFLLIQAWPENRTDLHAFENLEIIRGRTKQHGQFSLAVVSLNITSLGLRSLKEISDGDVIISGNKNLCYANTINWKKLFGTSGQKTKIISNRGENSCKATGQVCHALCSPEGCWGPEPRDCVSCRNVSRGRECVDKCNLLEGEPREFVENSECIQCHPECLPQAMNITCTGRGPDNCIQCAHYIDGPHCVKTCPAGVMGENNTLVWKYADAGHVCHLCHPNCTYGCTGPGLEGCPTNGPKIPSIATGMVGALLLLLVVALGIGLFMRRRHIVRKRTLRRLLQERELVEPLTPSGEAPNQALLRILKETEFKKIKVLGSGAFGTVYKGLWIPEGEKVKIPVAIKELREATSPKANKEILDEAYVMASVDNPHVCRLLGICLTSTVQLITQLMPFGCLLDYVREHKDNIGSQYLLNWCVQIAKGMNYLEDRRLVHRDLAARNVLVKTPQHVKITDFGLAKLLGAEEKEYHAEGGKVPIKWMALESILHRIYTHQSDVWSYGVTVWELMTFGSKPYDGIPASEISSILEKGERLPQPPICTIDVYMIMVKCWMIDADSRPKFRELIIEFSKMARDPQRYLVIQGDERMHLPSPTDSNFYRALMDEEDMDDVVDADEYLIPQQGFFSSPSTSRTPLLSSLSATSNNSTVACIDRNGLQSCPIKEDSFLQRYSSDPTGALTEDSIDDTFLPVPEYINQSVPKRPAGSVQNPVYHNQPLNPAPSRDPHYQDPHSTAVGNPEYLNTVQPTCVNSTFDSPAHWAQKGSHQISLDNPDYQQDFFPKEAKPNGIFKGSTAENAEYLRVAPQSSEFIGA

CDK1:Cyclin-B = molecular target: T2, CDK1:Cyclin-B (Homo sapiens, UniProt P06493); test: CDK1 Screening Assay; conditions: read-out: Kinase Assay (IC50 uM) CDK1
T2 construct: purchased New England Biolabs, Beverly, MA 6020; host or cells: insect cells
T2 sequence (P06493 whole entry): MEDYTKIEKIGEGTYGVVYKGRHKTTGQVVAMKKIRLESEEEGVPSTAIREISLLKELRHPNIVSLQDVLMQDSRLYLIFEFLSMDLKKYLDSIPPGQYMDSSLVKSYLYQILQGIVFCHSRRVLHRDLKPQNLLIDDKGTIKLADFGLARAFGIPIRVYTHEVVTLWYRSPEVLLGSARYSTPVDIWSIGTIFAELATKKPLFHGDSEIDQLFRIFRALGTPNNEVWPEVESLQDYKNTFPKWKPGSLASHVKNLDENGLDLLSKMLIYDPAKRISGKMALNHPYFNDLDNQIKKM
T2 sequence (P14635 whole entry partner): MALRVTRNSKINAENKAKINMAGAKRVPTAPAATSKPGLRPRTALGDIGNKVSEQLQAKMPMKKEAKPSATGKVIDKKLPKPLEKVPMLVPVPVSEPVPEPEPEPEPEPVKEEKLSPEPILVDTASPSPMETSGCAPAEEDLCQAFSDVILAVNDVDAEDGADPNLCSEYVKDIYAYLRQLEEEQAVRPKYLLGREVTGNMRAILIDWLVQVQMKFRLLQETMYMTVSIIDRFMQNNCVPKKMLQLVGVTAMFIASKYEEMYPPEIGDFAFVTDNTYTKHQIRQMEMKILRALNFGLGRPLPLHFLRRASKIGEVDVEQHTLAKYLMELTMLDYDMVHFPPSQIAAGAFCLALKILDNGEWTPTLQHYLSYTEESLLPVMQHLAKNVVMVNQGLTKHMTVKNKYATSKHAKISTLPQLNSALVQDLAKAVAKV
Protocol: (§1) 70 µL of the kinase reaction mixture was dispensed into the well of a streptavidin coated FlashPlate™ (Cat. # SMP103, NEN, Boston, MA). Then 1 µL of test compound stock in 100% DMSO was added to the wells resulting in a final concentration of 1% DMSO in the reaction with a 100 µl final reaction volume. Next, CDK1:Cyclin-B protein was diluted in 50 mM Tris-HCl pH=8.0, 0.1% BSA at a concentration of 1 ng per µL and 30 µl (30ng enzyme per test well) was added to each well to initiate the reaction. The reaction was incubated for one hour at 30°C. At the end of the 1-hour incubation, the reaction was terminated by aspirating the reaction mixture from the plate and washing the wells twice with PBS containing 100 mM EDTA. The histone-H1 biotinylated peptide substrate became immobilized on the Flashplate™ and the incorporation of ^33P-γ-ATP was measured by reading the plate on a scintillation counter. Inhibition of the enzymatic activity of CDK1 was measured by observing a reduced amount of ^33P-γ-ATP incorporated into the immobilized peptide. […]

[2] = molecular target: T3, VEGF-R (vascular endothelial growth factor receptor-2) (Rattus norvegicus, UniProt O08775); test: VEGF-R Screening Assay; conditions: read-out: Kinase Assay (IC50 uM) VEGF-R
T3 construct: 6xHis (polyhistidine) (N)
T3 sequence (O08775 786-1343): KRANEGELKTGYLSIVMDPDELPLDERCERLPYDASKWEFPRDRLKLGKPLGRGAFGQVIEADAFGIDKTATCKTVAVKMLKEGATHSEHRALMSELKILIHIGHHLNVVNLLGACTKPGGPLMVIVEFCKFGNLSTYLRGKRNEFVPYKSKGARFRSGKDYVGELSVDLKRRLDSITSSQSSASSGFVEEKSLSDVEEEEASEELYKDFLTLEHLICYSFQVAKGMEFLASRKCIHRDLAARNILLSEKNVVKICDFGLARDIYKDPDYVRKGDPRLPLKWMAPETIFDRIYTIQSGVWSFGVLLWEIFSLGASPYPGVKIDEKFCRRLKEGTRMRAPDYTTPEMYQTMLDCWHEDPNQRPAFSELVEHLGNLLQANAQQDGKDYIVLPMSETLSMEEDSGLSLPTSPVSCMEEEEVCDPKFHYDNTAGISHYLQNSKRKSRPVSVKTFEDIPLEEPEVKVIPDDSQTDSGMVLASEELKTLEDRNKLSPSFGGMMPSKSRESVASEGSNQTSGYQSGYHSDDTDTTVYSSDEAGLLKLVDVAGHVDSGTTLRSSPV
Protocol: as §1, with “a 100 µL final reaction” for “a 100 µl final reaction”, “volume. Next, soluble rat tyrosine kinase containing an N-terminal 6XHIS tag was diluted” for “volume. Next, CDK1:Cyclin-B protein was diluted”, “concentration of 5 ng per” for “concentration of 1 ng per”, “and 30 µL (150 ng enzyme per” for “and 30 µl (30ng enzyme per”, “EDTA. The PLC1 biotinylated peptide” for “EDTA. The histone-H1 biotinylated peptide”, “activity of the VEGF-R was measured” for “activity of CDK1 was measured”

[3] = molecular target: T4, HER2 (human epidermal growth factor receptor-2) (Homo sapiens, UniProt P04626); test: Kinase Selectivity Assay HER2
T4 construct: begins at amino acid 676 followed by the remainder of the HER2 cytoplasmic domain; polyhistidine (N)
T4 sequence (P04626 676-1255 limits assumed): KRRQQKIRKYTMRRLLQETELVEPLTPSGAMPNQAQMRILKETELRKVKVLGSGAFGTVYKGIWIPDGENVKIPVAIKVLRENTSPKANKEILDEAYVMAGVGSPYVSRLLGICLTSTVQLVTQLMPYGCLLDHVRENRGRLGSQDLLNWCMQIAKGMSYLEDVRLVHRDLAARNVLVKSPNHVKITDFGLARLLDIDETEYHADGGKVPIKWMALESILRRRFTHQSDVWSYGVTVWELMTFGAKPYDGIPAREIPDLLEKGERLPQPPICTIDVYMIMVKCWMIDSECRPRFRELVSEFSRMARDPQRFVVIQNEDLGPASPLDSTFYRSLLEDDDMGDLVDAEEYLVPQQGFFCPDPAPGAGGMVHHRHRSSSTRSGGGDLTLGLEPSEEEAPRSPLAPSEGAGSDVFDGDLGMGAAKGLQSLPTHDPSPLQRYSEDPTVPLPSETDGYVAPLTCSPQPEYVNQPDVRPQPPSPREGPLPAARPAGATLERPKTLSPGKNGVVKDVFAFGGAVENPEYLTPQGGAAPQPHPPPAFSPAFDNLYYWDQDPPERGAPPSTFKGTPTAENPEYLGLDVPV

[4] = Kinase Selectivity, Table 2, read-out: EGF-R IC50
[5] = read-out: Kinase Assay (IC50 uM) EGF-R
[6] = read-out: Kinase Assay (IC50 uM) HER2 Kinase

Nc1nc(Nc2ccc(S(N)(=O)=O)cc2)nn1C(=O)c1sccc1F [Cpd 16, 4-[[5-amino-1-[(3-fluoro-2-thienyl)carbonyl]-1H-1,2,4-triazol-3-yl]amino]-benzenesulfonamide]
IC50 [1, 4]: > 100 µM

Nc1nc(Nc2ccc(S(N)(=O)=O)cc2)nn1C(=O)C1CCCCC1 [Cpd 39, 4-[[5-amino-1-(cyclohexylcarbonyl)-1H-1,2,4-triazol-3-yl]amino]-benzenesulfonamide]
IC50 (CDK1:Cyclin-B): 0.012 µM
IC50 [2]: 0.334 µM
IC50 [1, 5]: > 100 µM

CNS(=O)(=O)c1ccc(Nc2nc(N)n(C(=O)c3sc(C)cc3C)n2)cc1 [Cpd 83, 4-[[5-amino-1-[(3,5-dimethyl-2-thienyl)carbonyl]-1H-1,2,4-triazol-3-yl]amino]-N-methyl-benzenesulfonamide]
IC50 (CDK1:Cyclin-B): 0.008 µM
IC50 [2]: 0.04 µM
IC50 [1, 5]: > 100 µM

CC(O)c1ccc(F)c(C(=O)n2nc(Nc3ccc(S(N)(=O)=O)cc3)nc2N)c1F (stereo not shown) [Cpd 58, 4-[[5-amino-1-[2,6-difluoro-3-(1-hydroxyethyl)benzoyl]-1H-1,2,4-triazol-3-yl]amino]-benzenesulfonamide]
IC50 [1, 5]: > 10 µM

Cc1ccsc1C(=O)n1nc(Nc2ccc(S(=O)(=O)NCCN(C)C)cc2)nc1N [Cpd 104, 4-[[5-amino-1-[(3-methyl-2-thienyl)carbonyl]-1H-1,2,4-triazol-3-yl]amino]-N-[2-(dimethylamino)ethyl]-benzenesulfonamide]
IC50 [2]: 0.016 µM
IC50 [3, 6]: 0.202 µM
IC50 [1, 5]: > 10 µM

CCc1ccc(C(=O)n2nc(Nc3ccc(S(N)(=O)=O)cc3)nc2N)s1 [Cpd 32, 4-[[5-amino-1-[(5-ethyl-2-thienyl)carbonyl]-1H 1,2,4-triazol-3-yl]amino]-benzenesulfonamide]
IC50 [1, 4]: > 100 µM

Cc1ccsc1C(=O)n1nc(Nc2ccc(N3CCNC3=O)cc2)nc1N [Cpd 113, 1-[4-[[5-amino-1-[(3-methyl-2-thienyl)carbonyl]-1H-1,2,4-triazol-3-yl]amino]phenyl]-2-imidazolidinone]
IC50 [1, 5]: > 10 µM

Nc1nc(Nc2ccc(S(N)(=O)=O)cc2)nn1C(=O)c1cccs1 [Cpd 14, 4-[[5-amino-1-(2-thienylcarbonyl)-1H-1,2,4-triazol-3-yl]amino]-benzenesulfonamide]
IC50 [1, 4]: 1.92 µM

Cc1ccc(F)c(C(=O)n2nc(N)nc2Nc2ccc(S(N)(=O)=O)cc2)c1F [Cpd 123, 4-[[3-amino-1-(2,6-difluoro-3-methylbenzoyl)-1H-1,2,4-triazol-5-yl]amino]-benzenesulfonamide]
IC50 [2]: 5.52 µM
IC50 [1, 5]: > 100 µM

Nc1nc(Nc2ccc(S(N)(=O)=O)cc2)nn1C(=O)c1c(F)cccc1Cl [Cpd 70, 4-[[5-amino-1-(2-chloro-6-fluorobenzoyl)-1H-1,2,4-triazol-3-yl]amino]-benzenesulfonamide]
IC50 [2]: 0.911 µM
IC50 [1, 5]: > 100 µM

CC(C)(C)c1ccc(C(=O)n2nc(Nc3ccc(S(N)(=O)=O)cc3)nc2N)s1 [Cpd 51, 4-[[5-amino-1-[[5-(1,1-dimethylethyl)-2-thienyl]carbonyl]-1H-1,2,4-triazol-3-yl]amino]-benzenesulfonamide]
IC50 [1, 5]: 1.1 µM

CNS(=O)(=O)c1ccc(Nc2nc(N)n(C(=O)c3sccc3C)n2)cc1 [Cpd 82, 4-[[5-amino-1-[(3-methyl-2-thienyl)carbonyl]-1H-1,2,4-triazol-3-yl]amino]-N-methyl-benzenesulfonamide]
IC50 [2]: 0.022 µM
IC50 [3, 6]: 0.118 µM
IC50 [1, 5]: > 100 µM

CCc1ccc(C(=O)n2nc(Nc3ccc(NS(C)(=O)=O)cc3)nc2N)s1 [Cpd 110, N-[4-[[5-amino-1-[(5-ethyl-2-thienyl)carbonyl]-1H-1,2,4-triazol-3-yl]amino]phenyl]-methanesulfonamide]
IC50 (CDK1:Cyclin-B): 0.022 µM
IC50 [2]: 0.014 µM
IC50 [1, 5]: > 10 µM

Cc1nc(C)c(C(=O)n2nc(Nc3ccc(S(N)(=O)=O)cc3)nc2N)s1 [Cpd 34, 4-[[5-amino-1-[(2,4-dimethyl-5-thiazolyl)carbonyl]-1H-1,2,4-triazol-3-yl]amino]-benzenesulfonamide]
IC50 [2]: 0.068 µM
IC50 [1, 5]: > 100 µM

Cc1ccccc1C(=O)n1nc(Nc2ccc(S(N)(=O)=O)cc2)nc1N [Cpd 57, 4-[[5-amino-1-(2-methylbenzoyl)-1H-1,2,4-triazol-3-yl]amino]-benzenesulfonamide]
IC50 [2]: 0.191 µM
IC50 [1, 5]: > 100 µM

Cc1ccsc1C(=O)n1nc(Nc2ccc(N3CCCS3(=O)=O)cc2)nc1N [Cpd 116, N^3-[4-(1,1-dioxido-2-isothiazolidinyl)phenyl]-1-[(3-methyl-2-thienyl)carbonyl]-1H-1,2,4-triazole-3,5-diamine]
IC50 [1, 5]: > 100 µM

CCc1ccc(C(=O)n2nc(Nc3ccc(S(=O)(=O)NC)cc3)nc2N)s1 [Cpd 84, 4-[[5-amino-1-[(5-ethyl-2-thienyl)carbonyl]-1H-1,2,4-triazol-3-yl]amino]-N-methyl-benzenesulfonamide]
IC50 [2]: 0.043 µM
IC50 [3, 6]: 0.052 µM
IC50 [1, 5]: > 10 µM

Nc1nc(Nc2ccc(S(=O)(=O)Nc3ccccn3)cc2)nn1C(=O)c1c(F)cccc1F [Cpd 118, 4-[[5-amino-1-(2,6-difluorobenzoyl)-1H-1,2,4-triazol-3-yl]amino]-N-(2-pyridinyl)-benzenesulfonamide]
IC50 [1, 5]: > 100 µM

CCc1ccc(C(=O)n2nc(Nc3ccc(S(=O)(=O)NCCN(C)C)cc3)nc2N)s1 [Cpd 103, 4-[[5-amino-1-[(5-ethyl-2-thienyl)carbonyl]-1H-1,2,4-triazol-3-yl]amino]-N-[2-(dimethylamino)ethyl]-benzenesulfonamide]
IC50 [1, 5]: > 10 µM

CN1CCN(c2ccc(Nc3nc(N)n(C(=O)c4c(F)cccc4F)n3)cc2)CC1 [Cpd 71, 1-(2,6-difluorobenzoyl)-N^3-[4-(4-methyl-1-piperazinyl)phenyl]-1H-1,2,4-triazole-3,5-diamine]
IC50 [1, 5]: > 10 µM

Nc1nc(Nc2ccc(S(=O)(=O)N3CCCCC3)cc2)nn1C(=O)c1cccs1 [Cpd 23, N^3-[4-(1-piperidinylsulfonyl)phenyl]-1-(2-thienylcarbonyl)-1H-1,2,4-triazole-3,5-diamine]
IC50 [1, 4]: > 100 µM

Nc1nc(Nc2ccc(S(N)(=O)=O)cc2)nn1C(=O)C1CCCC1 [Cpd 38, 4-[[5-amino-1-(cyclopentylcarbonyl)-1H-1,2,4-triazol-3-yl]amino]-benzenesulfonamide]
IC50 (CDK1:Cyclin-B): 0.029 µM
IC50 [2]: 0.88 µM
IC50 [1, 5]: > 100 µM

Nc1nc(Nc2ccc(S(N)(=O)=O)cc2)nn1C(=O)c1sccc1Cl [Cpd 17, 4-[[5-amino-1-[(3-chloro-2-thienyl)carbonyl]-1H-1,2,4-triazol-3-yl]amino]-benzenesulfonamide]
IC50 [1, 4]: 4.13 µM

Nc1nc(Nc2ccc(S(N)(=O)=O)cc2)nn1C(=O)c1ccsc1 [Cpd 30, 4-[[5-amino-1-(3-thienylcarbonyl)-1H-1,2,4-triazol-3-yl]amino]-benzenesulfonamide]
IC50 [1, 4]: 9.6 µM

Cc1cc(C)c(C(=O)n2nc(Nc3ccc(S(=O)(=O)Nc4ccccn4)cc3)nc2N)s1 [Cpd 120, 4-[[5-amino-1-[(3,5-dimethyl-2-thienyl)carbonyl]-1H-1,2,4-triazol-3-yl]amino]-N-(2-pyridinyl)-benzenesulfonamide]
IC50 ([3]; Table 1, read-out: HER2 IC50): 1 µM
IC50 [3, 6]: 1 µM
IC50 [1, 5]: > 10 µM

Nc1nc(Nc2ccc(S(N)(=O)=O)cc2)nn1C(=O)c1c(F)cccc1F [Cpd 1, 4-[[5-amino-1-(2,6-difluorobenzoyl)-1H-1,2,4-triazol-3-yl]amino]-benzenesulfonamide]
IC50 [1, 4]: > 100 µM

Cc1cc(C)c(C(=O)n2nc(Nc3ccc(-n4ccnc4)cc3)nc2N)s1 [Cpd 92, 1-[(3,5-diinethyl-2-thienyl)carbonyl]-N^3-[4-(1H-imidazol-1-yl)phenyl]-1H-1,2,4-triazole-3,5-diamine]
IC50 [1, 5]: > 100 µM

Nc1ccc(F)c(C(=O)n2nc(Nc3ccc(S(N)(=O)=O)cc3)nc2N)c1F [Cpd 55, 4-[[5-amino-1-(3-amino-2,6-difluorobenzoyl)-1H-1,2,4-triazol-3-yl]amino]-benzenesulfonamide]
IC50 [2]: 0.577 µM
IC50 [1, 5]: 16.1 µM
